The source of these data is US20220152031A1, “PYRIDAZINONES AND METHODS OF USE THEREOF” (Goldfinch Bio, Inc., priority 2019, published 2022).

Each structure is given as a SMILES string.

For the first experiment, the target named is T1, TRPC5 (Homo sapiens, UniProt Q9UL62).
T1 construct: expressed in transfected cells
T1 sequence (Q9UL62 1-973): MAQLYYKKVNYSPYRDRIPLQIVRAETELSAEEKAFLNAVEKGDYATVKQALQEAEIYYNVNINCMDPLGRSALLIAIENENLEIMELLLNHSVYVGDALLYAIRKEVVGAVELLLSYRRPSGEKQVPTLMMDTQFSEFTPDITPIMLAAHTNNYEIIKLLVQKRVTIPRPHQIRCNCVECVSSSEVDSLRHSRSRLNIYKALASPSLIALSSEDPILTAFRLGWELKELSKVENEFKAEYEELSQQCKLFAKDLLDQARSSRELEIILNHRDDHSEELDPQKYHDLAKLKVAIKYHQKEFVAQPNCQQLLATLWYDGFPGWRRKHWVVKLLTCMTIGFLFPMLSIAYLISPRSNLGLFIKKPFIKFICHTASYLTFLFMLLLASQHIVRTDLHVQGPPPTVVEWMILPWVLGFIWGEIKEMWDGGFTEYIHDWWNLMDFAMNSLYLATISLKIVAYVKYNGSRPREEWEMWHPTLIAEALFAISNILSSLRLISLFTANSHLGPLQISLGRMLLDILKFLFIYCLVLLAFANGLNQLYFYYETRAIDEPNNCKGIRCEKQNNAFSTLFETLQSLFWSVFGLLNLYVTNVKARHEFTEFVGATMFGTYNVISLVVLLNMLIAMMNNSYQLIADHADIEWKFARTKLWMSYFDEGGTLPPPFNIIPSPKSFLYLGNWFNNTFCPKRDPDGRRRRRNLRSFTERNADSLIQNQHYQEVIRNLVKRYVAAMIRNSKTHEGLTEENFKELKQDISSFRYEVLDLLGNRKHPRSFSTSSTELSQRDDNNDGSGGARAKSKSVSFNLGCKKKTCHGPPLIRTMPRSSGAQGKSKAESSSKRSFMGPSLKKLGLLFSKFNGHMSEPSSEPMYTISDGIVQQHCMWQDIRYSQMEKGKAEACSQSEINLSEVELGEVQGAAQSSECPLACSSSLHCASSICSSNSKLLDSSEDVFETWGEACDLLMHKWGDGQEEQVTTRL
The experiment is described as follows: TRPC5 activity assay (FLIPR calcium fluorescence, HEK-TREx hTRPC5 cells). Type of experiment: cell-based. The conditions noted are these: HEK-TREx hTRPC5 cells, FLIPR, 30 μM Riluzole stimulation; read-out: TRPC5. As for the experimental part: ICLN-1633 cells (HEK-TREx hTRPC5) expressing TRPC5 were generated as follows. Commercially available HekTrex-293 cells were seeded at 0.7×10^6 cells/well in a 1×6-well plate 24 hrs prior to transfection using 2 mL cell growth media containing no antibiotics (lx DMEM/high glucose (Hyclone #SH30022.02); 10% fetal bovine serum (Sigma) 2 mM sodium pyruvate, 10 mM HEPES). […] On day 2, 2 μg of plasmid DNA plus 6 μl of Xtreme-GENE HP reagent in Optimem (200 μl total volume) was prepared and incubated for 15 min at room temperature. This plasmid solution was then gently overlayed dropwise onto each well and the plate was gently swirled to mix complex with the media for approximately 30 seconds. Transfected cells were incubated at 37° C. in a 10% CO2 incubator for 24 hrs. The transfected cells were harvested and transferred into 2×150 mm dishes containing cell growth media with no antibiotics at 37° C.
The next day selection was initiated to generate a stable pool by adding cell growth media containing 150 μg/mL Hygromycin and 5 μg/mL Blasticidin and cells were allowed to grow. Media with the selection agent was changed every 1-2 days as needed to remove dead cells. After 7 days, the hygromycin concentration was reduced to 75 μg/mL and cells growth was allowed to continue.
Single clones were selected as follows. The stable pool was diluted to 10 cells/mL and seeded (100 μl/well) into 24×96 well plates (˜1 cell/well) and allowed to grow for 7 days in cell growth media. Fresh media (100 μl) was added and the cells allowed to grow for another 1-2 weeks and then stored frozen or used immediately.
10-point dose response curves were generated using the Echo-550 acoustic dispenser. Compound source plates were made by serially diluting compound stocks to create 10 mM, 1 mM, and 0.1 mM solutions in DMSO into Echo certified LDV plates. The Echo then serially spotted 100% DMSO stock solutions into source dose response plates to generate a 4-fold dilution scheme. 100% DMSO was added to the spotted dose response plates to bring the final volume to 5 μl. 300 nl of the dose response stock plate was then spotted into pre-incubation and stimulation assay plates. 50 μl of pre-incubation buffer and 100 μl of stimulation buffer was then added to the plates resulting in a final assay test concentration range of 30 μM to 0.0001 μM with a final DMSO concentration of 0.3%.
Human ICLN-1633 cells expressing were plated onto 384 well, black PDL-coated microplates and maintained in TRPC5 growth media the day prior to use for experiments. TRPC5 expression was induced by the application of 1 μg/mL tetracycline at the time of plating. […] Cells are incubated at room temperature, protected from light, for 60-90 minutes. After the incubation period, the dye is removed and replaced with 10 μl of EBSS. Cell, pre-incubation and stimulation plates are loaded onto the FLIPR-II and the assay is initiated. The FLIPR measures a 10 second baseline and then adds 10 μl of 2× compounds (or controls). Changes in fluorescence are monitored for an additional 5 minutes. After the 5 minute pre-incubation, 20 μl of 2× Riluzole (with 1× compound or controls) is added to the cell plate. The final Riluzole stimulation concentration in the assay is 30 μM. After the Riluzole addition, changes in fluorescence are monitored for an additional 5 minutes.
Compound modulation of TRPC5 calcium response was determined as follows. After the Englerin A, fluorescence was monitored for a 5-minute period. The maximum relative fluorescence response (minus the control response of 1 μM of an internal control compound known to maximally block TRPC5 calcium response, the “REF INHIB” in the formula below) was captured and exported from the FLIPR.
Compound effect is calculated as % inhibition using the following formula: […]
wherein “RFU” is the relative fluorescent units.
Regarding `C[C@@H]1CCN(Cc2ccccc2)C[C@@H]1N(C)c1ncnc2c1CCN(c1cn[nH]c(=O)c1Cl)C2` [Compound 133, 5-(4-[[(3R,4R)-1-Benzyl-4-methylpiperidin-3-yl](methyl)amino]-5H,6H,7H,8H-pyrido[3,4-d]pyrimidin-7-yl)-4-chloro-2,3-dihydropyridazin-3-one], the IC50 is 50 to 500 nM.

`C[C@H]1CCN(Cc2ccccc2)C[C@H]1N(C)c1ncnc2c1CCN(c1cn[nH]c(=O)c1Cl)C2` [Compound 133a]: the IC50 lay within 500 to 1000 nM.

For the compound `O=c1[nH]ncc(N2CCc3c(nc(CO)nc3Oc3ccc(F)cc3C(F)F)C2)c1Cl` [Compound 134, 4-chloro-5-[4-[2-(difluoromethyl)-4-fluorophenoxy]-2-(hydroxymethyl)-5H,6H,7H,8H-pyrido[3,4-d]pyrimidin-7-yl]-2,3-dihydropyridazin-3-one], the IC50 was below 50 nM.

Take `O=c1[nH]ncc(N2CCc3c(ncnc3N(CCO)c3ccc(F)cc3C(F)(F)F)C2)c1Cl` [Compound 136, 4-Chloro-5-(4-[[4-fluoro-2-(trifluoromethyl)phenyl](2-hydroxyethyl)amino]-5H,6H,7H,8H-pyrido[3,4-d]pyrimidin-7-yl)-2,3-dihydropyridazin-3-one]: the IC50 was below 50 nM.

Turning to `Cn1c2c(c(Oc3ccc(F)cc3C(F)(F)F)nc1=O)CCN(c1cn[nH]c(=O)c1Cl)C2` [Compound 138, 4-Chloro-5-[4-[4-fluoro-2-(trifluoromethyl)phenoxy]-1-methyl-2-oxo-1H,2H,5H,6H,7H,8H-pyrido[3,4-d]pyrimidin-7-yl]-2,3-dihydropyridazin-3-one], the IC50 was 50 to 500 nM.

For the compound `COc1nc2c(c(Oc3ccc(F)cc3C(F)(F)F)n1)CCN(c1cn[nH]c(=O)c1Cl)C2` [Compound 139, 4-Chloro-5-[4-[4-fluoro-2-(trifluoromethyl)phenoxy]-2-methoxy-5H,6H,7H,8H-pyrido[3,4-d]pyrimidin-7-yl]-2,3-dihydropyridazin-3-one], the IC50 was in the range of 50 to 500 nM.

Consider `O=c1[nH]ncc(N2CCc3c(Oc4ccc(F)cc4C(F)(F)F)ccnc3C2)c1Cl` [Compound 140, 4-chloro-5-[4-[4-fluoro-2-(trifluoromethyl)phenoxy]-5,6,7,8-tetrahydro-1,7-naphthyridin-7-yl]-2,3-dihydropyridazin-3-one], for which the IC50 was 50 to 500 nM.

The experiment is the same for the next values; noted with them: Table 4, HEK-TREx hTRPC5; read-out: TRPC5-FLIPR IC50.
In the case of `CCc1ncccc1[C@@H](C)n1nnc2c1CCN(c1cn[nH]c(=O)c1Cl)C2` [MS, 4-chloro-5-[1-[(1R)-1-(2-ethylpyridin-3-yl)ethyl]-1H,4H,5H,6H,7H-[1,2,3]triazolo[4,5-c]pyridin-5-yl]-2,3-dihydropyridazin-3-one], the IC50 is 0.01 to 1000 nM.

Still in this experiment, the particulars now being: Table 7, HEK-TREx hTRPC5; read-out: TRPC5-FLIPR IC50.
For the compound `CCc1ncccc1[C@@H](C)n1nnc2c1CCN(c1cn[nH]c(=O)c1Cl)C2` [MS, 4-chloro-5-[1-[(1R)-1-(2-ethylpyridin-3-yl)ethyl]-1H,4H,5H,6H,7H-[1,2,3]triazolo[4,5-c]pyridin-5-yl]-2,3-dihydropyridazin-3-one], the IC50 fell in the range of 0.01 to 1000 nM.
